Experimental data: patent US5281608A, “Substituted tetrahydropyrido[3',4':4,5]-pyrrolo[3,2-c]quinolines” (American Home Products Corporation, priority 1992, dated 1994)
≈ marks a conversion by molar mass, not a printed value.

Columns and labels:
[1] = test system: rabbit articular chondrocytes (IL-1-induced neutral protease release); experiment: Inhibition of IL-1-induced release of neutral protease from rabbit articular chondrocytes; assay type: cell-based, rabbit (Male New Zealand White); details: Oryctolagus cuniculus, Chondrocyte, human IL-1 stimulated, 24 h
Description: The ability of the compounds of the invention to inhibit interleukin 1 is measured by the ability of the test compounds to inhibit the IL-1-induced release of neutral protease from rabbit articular chondrocytes.
Male New Zealand White rabbits are anesthetized with 50 mg/kg of ketamine (i.m.) and killed by an intracardiac injection of 3 mls. of Nembutal. The knee joints of both legs are resected and the articular surfaces are exposed. Cartilage slices are obtained using a scalpel and are placed in a tissue culture dish (100 mm diameter) containing 10 mls of Hank's balanced salt solution (HBSS). The chondrocytes within the cartilage slices are then liberated by a series of enzyme digestions. The slices are incubated for 10 minutes at 37° C. in 0.05% hyaluronidase (Sigma H-3884), rinsed with HBSS and incubated with 0.2% trypsin (Sigma T-2395) for 10 minutes at 37° C. The slices are rinsed again and incubated for 10 minutes at 37° C. with 1.2% collagenase (Sigma C-5138). The slices are then rinsed again with HBSS and resuspended in 10 ml of Ham's F-12 medium containing 10% fetal bovine calf serum (FCS) and 0.2 % collagenase and incubated overnight at 37° C. in a 5% CO2 incubator. The next day, the medium containing the digested cartilage fragments and liberated chondrocytes is transferred to a 15 ml centrifuge tube and the cells are collected by centrifugation and washed twice and resuspended in Ham's F-12 medium. The cells are then plated into 24-well tissue culture plates (2×10^5 cells/well) and incubated at 37° C. until confluent (usually 4-6 days).
The confluent chondrocytes are rinsed twice with serum-free Ham's F-12 medium and 1 ml is added to each well. Fifty μl of purified human IL 1 (100 Units/ml; Genzyme Corporation, Boston, Mass.) is then added to stimulate these cells to secrete neutral protease. To measure drug effects, the cells are treated with test compound 10 minutes prior to addition of IL-1. The standard screening dose is 10 μM. Twenty-four hours after IL-1 stimulation, supernatant fluids are collected and assayed for neutral protease activity.
The neutral protease activity of chondrocyte supernatant fluids is determined by their ability to degrade an insoluble protease substrate, azocoll (Sigma). Supernatants are treated for 10 minutes at room temperature with 350 μM p-aminophenylmurcuric acetate to activate the latent enzyme. Three hundred μl of supernatant is then mixed with 500μl of a 20 mg/ml suspension of azocoll and incubated at 37° C. for 18-24 hours with gentle rocking. The mixtures are centrifuged and the amount of substrate hydrolyzed is determined by measuring the absorbance of the supernatant at 520 nm.
Drug effects are calculated as the % change in enzyme activity (absorbance)by supernatants from drug-treated chondrocytes relative to enzyme activity of supernatants from vehicle-treated chondrocytes as follows: [formula]

[2] = test system: rat limb bones (PTH-induced bone resorption); experiment: Bone resorption assay (45Ca release from rat limb bones), PTH-induced; assay type: cell-based, rat (Sprague-Dawley CD); details: 48 h; for IC50: Rattus norvegicus, read-out: Inhibition of Bone Resorption, PTH-Induced (IC50)
Description: (§1) The ability of the compounds of the invention to modify the process of bone resorption is evaluated in the bone resorption assay measuring ^45 Ca release from rat limb bones.
(§2) Limb bone preparation. Timed pregnant Sprague-Dawley CD® rats (Charles River) are administered 100 μCi ^45 CaCl2 (NEN calcium -45 NEZ-013) in 100 μl of 0.9% saline, subcutaneously, on day 18 of gestation. The rats are sacrificed the following day by CO2 asphyxiation. The fetuses are removed and the right forelimbs excised and placed in a Petri dish containing ice cold explant medium consisting of modified BGJb -Fitton Jackson media (custom formulation, Gibco No. 78-0088) adjusted to pH 7.3 to which 10 mM TES is added. The modified BGJb media is obtained without salts, glucose or bicarbonate and is supplemented before use with 0.1 mM MgCl2, 1.25 mM CaCl2, 5.3 mM KCl, 0.7 mM MgSO4, 130 mM NaCl, 1.0 mM NaH2 PO4, 1 g/L glucose, 50 mg/L Na acetate and 100 U/ml penicillin G. The medium is sterilized by passage through a 0.2 μ M filter (Nalge). Under a dissecting microscope, the bones are gently cleaned of adherent tissue and the cartilaginous ends removed. Incubation and drug treatment. The midshafts are placed, individually, on 3×3 mm squares of filter paper (Gelman GN-6 metricel filters; […] pore size) which rest on stainless steel screens in wells of 24-well culture plates containing 0.5 mL of preincubation medium. The preincubation medium is brought to 37° C. prior to transfer of bones. The preincubation medium consists of the modified BGJb medium (with salts and glucose as above), pH 7.3, containing 29 mM NaHCO3. After incubation for 18-24 hours at 37° C. in 5% CO2, the bones are transferred on their screen/filter paper supports to new plates containing, in a total volume of 0.5 mL/well at 37° C., the test compound diluted in preincubation medium supplemented with 15% heat inactivated horse serum (Gibco No. 230-6050), pH 7.3, with a bone resorption stimulating agent (e.g. parathyroid hormone [PTH] or interleukin-1 [IL-1]). For compounds that require nonaqueous solvents, dilutions are made from the appropriate stock solution with medium. In these instances, basal and bone resorption stimulated controls exposed to an equivalent concentration of the vehicle are included. An additional group of bones that have been subjected to boiling for 1 hour (kill control) are used to establish background, non cell mediated, exchange of ^45 Ca. The right ulna and radius from each fetus are used. Both bones are subjected to the same treatment and each treatment group consists of bones from 4 or more fetuses. Treatments are randomly assigned using a preclinical statistics program (PS-ALLOC). After a 48 hour incubation at 37° C. in 5% CO2, the bones are removed from the medium and extracted in 0.5 mL of 0.1N HCl for 1 or more days. Duplicate 150 μL aliquots of the incubation medium and the bone extract are analyzed for ^45 Ca radioactivity in 5 mL of liquid scintillation cocktail.
(§3) The percentage of bone ^45 Ca released into the medium is determined as follows: [formula] Results are normally expressed as the ratio of the percent ^45 Ca release of the experimental group versus the appropriate vehicle control, or as an IC50 value.

[3] = test system: rat limb bones (IL-1 induced bone resorption); experiment: Bone resorption assay (45Ca release from rat limb bones), IL-1 induced; assay type: cell-based, rat (Sprague-Dawley CD); details: 48 h; for IC50: Rattus norvegicus, read-out: Inhibition of Bone Resorption, IL-1 Induced (IC50)
Description: as §1, §2, §3

| SMILES | IC50 [2] | IC50 [3] | inhibition at 10 µM [1] | Inhibition of Bone Resorption, PTH-Induced (activity in words) [2] | Inhibition of Bone Resorption, IL-1 Induced (activity in words) [3] | inhibition at 0.1 µM ([1]; dose 0.1 μM) | inhibition at 1 µM ([1]; dose 1 μM) | IC50 [1] |
| --- | --- | --- | --- | --- | --- | --- | --- | --- |
| CCOC(=O)c1ccc(N2CCc3[nH]c4c(cnc5cc(Cl)ccc54)c3C2)cc1 [Example 2, 4-(3-Chloro-8,9,10,11-tetrahydro-7H-pyrido[3',4':4,5]-pyrrolo[3,2-c]quinolin-8-yl)benzoic acid ethyl ester] | 0.98 µg/mL (≈ 2.41 µM) | 3.39 µg/mL (≈ 8.35 µM) | 38% | Active | Active | – | – | – |
| N#Cc1ccc(N2CCc3[nH]c4c(cnc5cc(Cl)ccc54)c3C2)cc1 [Example 3, 4-(3-Chloro-8,9,10,11-tetrahydro-7H-pyrido[3',4':4,5]-pyrrolo[3,2-c]quinolin-8-yl)benzonitrile] | – | – | 22% | – | – | – | – | – |
| O=C(c1cccs1)N1CCc2[nH]c3c(cnc4cc(Cl)ccc43)c2C1 [Example 4, 3-Chloro-8,9,10,11-tetrahydro-8-(2-thienylcarbonyl)-7H-pyrido[3',4':4,5]pyrrolo[3,2-c]quinoline] | – | – | 64% | – | Active at <5 μg/ml | 14% | 20% | 7.3 µM |
| N#Cc1ccc(C(=O)N2CCc3[nH]c4c(cnc5cc(Cl)ccc54)c3C2)cc1 [Example 5, 3-Chloro-8-(4-cyanobenzoyl)-8,9,10,11-tetrahydro-7H-pyrido[3',4':4,5]pyrrolo[3,2-c]quinoline] | – | – | 28% | – | – | – | – | – |
| O=C(c1ccccc1)N1CCc2[nH]c3c(cnc4cc(Cl)ccc43)c2C1 [Example 6, 8-Benzoyl-3-Chloro-8,9,10,11-tetrahydro-7H-pyrido[3',4':4,5]pyrrolo[3,2-c]quinoline] | – | – | 57% | Active at 10 μg/ml | Active at 5 μg/ml | – | – | – |
| O=C(Nc1ccccc1)N1CCc2[nH]c3c(cnc4cc(Cl)ccc43)c2C1 [Example 7, 3-Chloro-7,9,10,11-tetrahydro-N-phenyl-8H-pyrido-[3',4':4,5]pyrrolo[3,2-c]quinoline-8-carboxamide] | – | – | 21% | – | – | – | – | – |
| COc1ccc(S(=O)(=O)N2CCc3[nH]c4c(cnc5cc(Cl)ccc54)c3C2)cc1 [Example 21, 3-Chloro-8,9,10,11-tetrahydro-8-[(4-methoxyphenyl)sulfonyl]-7H-pyrido[3',4':4,5]pyrrolo[3,2-c]quinoline] | – | 8.48 µg/mL (≈ 19.8 µM) | – | – | Active | – | – | – |

Now from value to compound, other results behind:

| IC50 [2] | IC50 [3] | SMILES | inhibition at 10 µM [1] | Inhibition of Bone Resorption, PTH-Induced (activity in words) [2] | Inhibition of Bone Resorption, IL-1 Induced (activity in words) [3] | inhibition at 0.1 µM ([1]; dose 0.1 μM) | inhibition at 1 µM ([1]; dose 1 μM) | IC50 [1] |
| --- | --- | --- | --- | --- | --- | --- | --- | --- |
| 0.633 µg/mL (≈ 1.54 µM) | 6.84 µg/mL (≈ 16.6 µM) | CS(=O)(=O)c1ccc(N2CCc3[nH]c4c(cnc5cc(Cl)ccc54)c3C2)cc1 [Example 1, 3-Chloro-8,9,10,11-tetrahydro-8-[4-(methylsulfonyl)phenyl]-7H-pyrido[3',4':4,5]pyrrolo[3,2-c]quinoline] | 40% | Active | Active | – | – | – |
| – | 0.067 µg/mL (≈ 0.16 µM) | O=C(c1cc2ccccc2s1)N1CCc2[nH]c3c(cnc4cc(Cl)ccc43)c2C1 [Example 10, 8-(Benzo[b]thien-2-ylcarbonyl)-3-chloro-8,9,10,11-tetrahydro-7H-pyrido[3',4':4,5]pyrrolo[3,2-c]quinoline] | 24% | – | Active | – | – | – |
| 0.944 µg/mL (≈ 2.33 µM) | 1.71 µg/mL (≈ 4.22 µM) | O=C(NC(=O)N1CCc2[nH]c3c(cnc4cc(Cl)ccc43)c2C1)c1ccccc1 [Example 13, N-Benzoyl-3-chloro-7,9,10,11-tetrahydro-8H-pyrido-[3',4':4,5]pyrrolo[3,2-c]quinoline-8-carboxamide] | – | Active | Active | – | – | – |
| 1.2 µg/mL (≈ 3.05 µM) | 1.21 µg/mL (≈ 3.08 µM) | S=C(Nc1ccccc1)N1CCc2[nH]c3c(cnc4cc(Cl)ccc43)c2C1 [Example 14, 3-Chloro-7,9,10,11-tetrahydro-N-phenyl-8H-pyrido-[3',4':4,5]pyrrolo[3,2-c]quinoline-8-carbothioamide] | – | Active | Active | – | – | – |
| 5.5 µg/mL (≈ 12.3 µM) | – | CCOC(=O)c1ccc(NC(=O)N2CCc3[nH]c4c(cnc5cc(Cl)ccc54)c3C2)cc1 [Example 15, 4-[[(3-Chloro-7,9,10,11-tetrahydro-8H-pyrido[3',4':4,5]pyrrolo-[3,2-c]quinoline-8-yl)carbonyl]amino]benzoic acid ethyl ester] | – | Active | – | – | – | – |
| 2.52 µg/mL (≈ 6.45 µM) | 6.22 µg/mL (≈ 15.9 µM) | O=C(NCc1ccccc1)N1CCc2[nH]c3c(cnc4cc(Cl)ccc43)c2C1 [Example 16, 3-Chloro-7,9,10,11-tetrahydro-N-(phenylmethyl)-8H-pyrido-[3',4':4,5]pyrrolo[3,2-c]quinoline-8-carboxamide] | – | Active | Active | – | – | – |
| 1.16 µg/mL (≈ 2.76 µM) | 1.65 µg/mL (≈ 3.92 µM) | O=C(NC(=S)N1CCc2[nH]c3c(cnc4cc(Cl)ccc43)c2C1)c1ccccc1 [Example 17] | – | Active | Active | – | – | – |
| – | 2.39 µg/mL (≈ 5.87 µM) | S=C(NCc1ccccc1)N1CCc2[nH]c3c(cnc4cc(Cl)ccc43)c2C1 [Example 18, 3-Chloro-7,9,10,11-tetrahydro-N-(phenylmethyl)-8H-pyrido-[3',4':4,5]pyrrolo[3,2-c]quinoline-8-carbothioamide] | – | – | Active | – | – | – |
| 0.059 µg/mL (≈ 0.145 µM) | 0.0088 µg/mL (≈ 0.0216 µM) | COc1cccc(NC(=O)N2CCc3[nH]c4c(cnc5cc(Cl)ccc54)c3C2)c1 [Example 20, 3-Chloro-7,9,10,11-tetrahydro-N-(3-methoxyphenyl)-8H-pyrido-[3',4':4,5]pyrrolo[3,2-c]quinoline-8-carboxamide] | – | Active | Active | – | – | – |
